Legend:
Meloidogyne incognita = experiment: Nematicidal test on Meloidogyne incognita; assay type: in vivo; conditions: 500 ppm, 1 mL soil drench, potted melon seedlings, 8 days after inoculation
Procedure: Nematicidal Test on Meloidogyne incognita
Agrochemical formulations containing different amide compounds represented by the general formula (I) of the present invention or salts thereof as an active ingredient were separately diluted to a concentration of 500 ppm. The diluted agrochemical formulations (1 mL) were drenched into the soil around the foot of potted melon seedlings. At one day after the agrochemical treatment, an aqueous suspension of Meloidogyne incognita (about 500 worms/mL) was drenched into the soil for inoculation both in a treatment plot and in a non-treatment plot. The inoculated pots were kept in a greenhouse at 25° C. At 8 days after the inoculation, the root of each seedling was washed with water, the number of root nodules was counted, and the nematicidal effect was evaluated according to the following criteria.
A: the percentage of the number of root nodules relative to the non-treatment plot is 0%.
B: the percentage of the number of root nodules relative to the non-treatment plot is 1 to 10%.
C: the percentage of the number of root nodules relative to the non-treatment plot is 11 to 20%.
D: the percentage of the number of root nodules relative to the non-treatment plot is 21 to 50%.

Plutella xylostella = experiment: Insecticidal test on Plutella xylostella; assay type: in vivo; conditions: 144 h, Chinese cabbage seedlings with laid eggs dipped about 30 seconds, 25° C., 6 days after dip treatment, read-out: insecticidal effect (corrected mortality rate, hatched larvae) activity level
Source text: Insecticidal Test on Plutella xylostella
Adults of Plutella xylostella were released onto Chinese cabbage seedlings and allowed to lay eggs thereon. At 2 days after the release of the adults, the Chinese cabbage seedlings with laid eggs were dipped for about 30 seconds in agrochemical formulations diluted to 500 ppm, each of which contained a different amide compound represented by the general formula (I) of the present invention as an active ingredient. After air-dried, the seedlings were kept in a thermostatic chamber at 25° C. At 6 days after the dip treatment, the number of hatched larvae per plot was counted, the mortality rate was calculated according to the formula shown below, and the insecticidal effect was evaluated according to the criteria of Test Example 1. This test was conducted in triplicate using 10 adults of Plutella xylostella per plot. Corrected mortality rate (%)=100×(Number of hatched larvae in a non-treatment plot−Number of hatched larvae in a treatment plot)/Number of hatched larvae in a non-treatment plot

Tetranychus urticae = experiment: Acaricidal test on Tetranychus urticae; assay type: in vivo; conditions: 500 ppm, kidney bean leaf disks dipped about 30 seconds, female adults, two days later, 25° C.
Source text: Acaricidal Test on Tetranychus urticae

Laodelphax striatella = experiment: Insecticidal test on Laodelphax striatella; assay type: in vivo; conditions: Laodelphax striatellus, 192 h, rice seedlings dipped 30 seconds, 3rd-instar larvae, 8 days after inoculation, read-out: insecticidal effect (corrected mortality rate) activity level
Source text: Insecticidal Test on Laodelphax striatella
The amide compounds represented by the general formula (I) of the present invention or salts thereof were separately dispersed in water and diluted to 500 ppm, and rice plant seedlings (variety: Nihonbare) were dipped in the agrochemical dispersions for 30 seconds. After air-dried, each seedling was put into a separate glass test tube and inoculated with ten 3rd-instar larvae of Laodelphax striatella, and then the glass test tubes were capped with cotton plugs. At 8 days after the inoculation, the numbers of surviving larvae and dead larvae were counted, the corrected mortality rate was calculated according to the formula shown below, and the insecticidal effect was evaluated according to the criteria of Test Example 1. Corrected mortality rate (%)=100×(Survival rate in a non-treatment plot−Survival rate in a treatment plot)/Survival rate in a non-treatment plot

[1] = system: wheat powdery mildew fungus Erysiphe graminis; conditions: 200 ppm, foliar application to wheat plants, 10 mL per pot, 7 days after inoculation

Structure (SMILES) | nematicidal effect (number of root nodules relative to non-treatment plot) activity level (Meloidogyne incognita) | mortality at 500 ppm (Plutella xylostella) | acaricidal effect (corrected mortality rate) activity level (Tetranychus urticae) | mortality at 500 ppm (Laodelphax striatella) | control effect (control rate, lesion area) activity level [1]
CCSc1cc(C(F)(F)F)ccc1C(=O)N(C)c1ccc(C(F)(F)F)cn1 [Compound 1-1, 2-(ethylthio)-N-methyl-4-(trifluoromethyl)-N-(5-(trifluoromethyl)pyridin-2-yl)benzamide] | D or higher | 100% | D or higher | 100% | –
CC[S+]([O-])c1cc(C(F)(F)F)ccc1C(=O)N(C)c1ccc(C(F)(F)F)cn1 (stereo not drawn) [Compound 1-2, 2-(ethylsulfinyl)-N-methyl-4-(trifluoromethyl)-N-(5-(trifluoromethyl)pyridin-2-yl)benzamide] | D or higher | 100% | – | 100% | –
CCS(=O)(=O)c1cc(C(F)(F)F)ccc1C(=O)N(C)c1ccc(C(F)(F)F)cn1 [Compound 1-3, 2-(ethylsulfonyl)-N-methyl-4-(trifluoromethyl)-N-(5-(trifluoromethyl)pyridin-2-yl)benzamide] | D or higher | 100% | – | 100% | –
CCN(C(=O)c1ccc(C(F)(F)F)cc1[S+]([O-])CC)c1ccc(C(F)(F)F)cn1 (stereo not drawn) [Compound 1-5] | D or higher | – | D or higher | – | D or higher
CCN(C(=O)c1ccc(C(F)(F)F)cc1S(=O)(=O)CC)c1ccc(C(F)(F)F)cn1 [Compound 1-6] | D or higher | – | D or higher | – | D or higher
CC[S+]([O-])c1cc(C(F)(F)F)ccc1C(=O)N(C)c1ccc(C(F)(F)F)cc1 (stereo not drawn) [Compound 3-2] | D or higher | – | D or higher | – | –
CCS(=O)(=O)c1cc(C(F)(F)F)ccc1C(=O)N(C)c1ccc(C(F)(F)F)cc1 [Compound 3-3] | D or higher | – | D or higher | – | D or higher
CCS(=O)(=O)c1cc(C(F)(F)F)ccc1C(=O)N(C)c1ccc(C(OC)(C(F)(F)F)C(F)(F)F)cc1 [Compound 3-6] | D or higher | – | D or higher | – | D or higher
CCSc1cc(C(F)(F)F)ccc1C(=O)N(C)c1ccc(C(C(F)(F)F)C(F)(F)F)cc1 [Compound 3-10] | D or higher | – | D or higher | – | –
CCS(=O)(=O)c1cc(C(F)(F)F)ccc1C(=O)N(C)c1ccc(C(C(F)(F)F)C(F)(F)F)cc1 [Compound 3-11] | D or higher | – | D or higher | – | –
CCSc1cc(C(F)(F)F)ccc1C(=O)N(C)c1ccc(Cl)cc1 [Compound 3-21] | D or higher | – | D or higher | – | –

Reference: patent US10123537B2, “Amide compound or salt thereof, agricultural and horticultural insecticide and microbicide comprising the compound, and method for using the insecticide and microbicide” (NIHON NOHYAKU CO., LTD., priority 2013, dated 2018)
